Assay results reported in US20240000074A1, “LOW DRIFT, RAINFASTNESS, HIGH SPREADING, HIGH UPTAKE AND ULV TANK MIX ADJUVANT FORMULATION” (BAYER AKTIENGESELLSCHAFT, priority 2020, published 2024).

Test system: Apple leaf cuticles
Assay: Apple cuticle penetration test (SOFU, simulation of foliar uptake)
Assay type: in vitro ADME
Conditions: Spray volume 650 l/ha; no additives
Excerpt: The cuticle penetration test is a further developed and adapted version of the test method SOFU (simulation of foliar uptake) originally described by Schonherr and Baur (Schonherr, J., Baur, P. (1996), Effects of temperature, surfactants and other adjuvants on rates of uptake of organic compounds. In: The plant cuticle—an integrated functional approach, 134-155. Kerstiens, G. (ed.), BIOS Scientific publisher, Oxford); it is well suited for systematic and mechanistic studies on the effects of formulations, adjuvants and solvents on the penetration of agrochemicals.
Apple leaf cuticles were isolated from leaves taken from trees growing in an orchard as described by Schönherr and Riederer (Schönherr, J., Riederer, M. (1986), Plant cuticles sorb lipophilic compounds during enzymatic isolation. Plant Cell Environ. 9, 459-466). Only the astomatous cuticular membranes of the upper leaf surface lacking stomatal pores were obtained. Discs having diameters of 18 mm were punched out of the leaves and infiltrated with an enzymatic solution of pectinase and cellulase. […] After storage for about four weeks the permeability of the cuticles reaches a constant level and the cuticular membranes are ready for the use in the penetration test. […]
An autosampler took aliquots of the acceptor in regular intervals and the content of active ingredient is determined by HPLC (DAD or MS). […]

Compound | Penetration rate of spirotetramate After 48 hours [%] | Penetration rate of tebuconazole After 24 hours [%]
CCOC(=O)OC1=C(c2cc(C)ccc2C)C(=O)N[C@]12CC[C@@H](OC)CC2 [spirotetramate] | 0 | 
CC(C)(C)C(O)(CCc1ccc(Cl)cc1)Cn1cncn1 (centres unmarked) [tebuconazole] |  | 4
